Assay results from PMC9036676 (RSC Advances, 2021).
Positions of bridges follow the written chain, without caps; N, C: chain ends. Non-standard residues stand in square brackets, D forms with d. Residues, ends and D or L forms follow the SMILES beside them. Trp(1-CH2COOH) = N[C@@H](Cc1cn(CC(=O)O)c2ccccc12)C(=O)O; Oic = O=C(O)[C@@H]1C[C@@H]2CCCC[C@@H]2N1; Hyp = O=C(O)[C@@H]1C[C@@H](O)CN1; NMeNle = CCCC[C@H](NC)C(=O)O; Pip = O=C(O)[C@@H]1CCCCN1; NMeA = CN[C@@H](C)C(=O)O; Dab = NCC[C@H](N)C(=O)O; Dap = NC[C@H](N)C(=O)O

What was measured:
PD-1/PD-L1 = PD-1/PD-L1 (Homo sapiens, UniProt Q9NZQ7); experiment: PD-1/PD-L1 TR-FRET assay; type: binding; conditions: IC50 on PD-1/PD-L1, TR-FRET assay
PD-1/PD-L1, sequence (Q9NZQ7 19-238 limits assumed): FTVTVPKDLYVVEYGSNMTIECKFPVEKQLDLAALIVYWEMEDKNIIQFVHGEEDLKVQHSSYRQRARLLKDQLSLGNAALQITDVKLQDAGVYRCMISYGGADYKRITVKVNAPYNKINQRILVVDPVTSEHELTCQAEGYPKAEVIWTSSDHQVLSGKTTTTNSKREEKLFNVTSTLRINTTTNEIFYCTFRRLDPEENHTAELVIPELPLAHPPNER

PD-1/PD-L1 interaction = conditions: read-out: IC50, inhibitory activity against the PD-1/PD-L1 interaction; cited from earlier work

Structure (SMILES) | IC50 (PD-1/PD-L1) | IC50 (PD-1/PD-L1 interaction)
CCCC[C@H]1C(=O)N(C)[C@@H](CCCC)C(=O)N[C@@H](CC(C)C)C(=O)N[C@H](C(=O)NCC(N)=O)CSCC(=O)N[C@@H](Cc2ccccc2)C(=O)N(C)[C@@H](C)C(=O)N[C@@H](CC(N)=O)C(=O)N2CCC[C@H]2C(=O)N[C@@H](Cc2c[nH]cn2)C(=O)N[C@@H](CC(C)C)C(=O)N2C[C@H](O)C[C@H]2C(=O)N[C@@H](Cc2c[nH]c3ccccc23)C(=O)N[C@@H](CO)C(=O)N[C@@H](Cc2c[nH]c3ccccc23)C(=O)N1C [Compound 2] ({CH2CO}-F[NMeA]NPHL[Hyp]WSW[NMeNle][NMeNle]LCG-NH2; thioether N-14) | 0.0401 µM | 
CCCC[C@H]1C(=O)N(C)[C@@H](CCCC)C(=O)N[C@@H](CC(C)C)C(=O)N[C@H](C(=O)NCC(N)=O)CSCC(=O)N[C@@H](Cc2ccc(O)cc2)C(=O)N2CCCC[C@H]2C(=O)N[C@@H](CC(N)=O)C(=O)N2[C@@H](C[C@@H]3CCCC[C@@H]32)C(=O)N[C@@H](CN)C(=O)N[C@@H](CC(C)C)C(=O)N2C[C@H](O)C[C@H]2C(=O)N[C@@H](Cc2c[nH]c3ccccc23)C(=O)N[C@@H](CCN)C(=O)N[C@@H](Cc2cn(CC(=O)O)c3ccccc23)C(=O)N1C [Compound 5] ({CH2CO}-Y[Pip]N[Oic][Dap]L[Hyp]W[Dab][Trp(1-CH2COOH)][NMeNle][NMeNle]LCG-NH2; thioether N-14) | 0.0146 µM | 
CCCC[C@H]1C(=O)N(C)[C@@H](CCCC)C(=O)N[C@@H](CCCNC(=N)N)C(=O)N[C@H](C(=O)NCC(N)=O)CSCC(=O)N[C@@H](Cc2ccccc2)C(=O)N(C)[C@@H](C)C(=O)N[C@@H](CC(N)=O)C(=O)N2CCC[C@H]2C(=O)N[C@@H](Cc2c[nH]cn2)C(=O)N[C@@H](CC(C)C)C(=O)N[C@@H](CO)C(=O)N[C@@H](Cc2c[nH]c3ccccc23)C(=O)N[C@@H](CO)C(=O)N[C@@H](Cc2c[nH]c3ccccc23)C(=O)N1C [Compound 1] ({CH2CO}-F[NMeA]NPHLSWSW[NMeNle][NMeNle]RCG-NH2; thioether N-14) |  | 0.009 µM
